Results reported in article PMC9694488, “Amyloid beta and its naturally occurring N-terminal variants are potent activators of human and mouse formyl peptide receptor 1” (The Journal of Biological Chemistry, 2022).
“Also recorded” adds a separate entry of the source.

Assays:
FPR1 and FPR2 = settings: cited from earlier work
hFPR3 = assay: Ca2+ imaging, HEK293T transiently transfected with hFPR3; settings: for activation of hFPR3: 10 nM, n = 1, N = 3 (Fig. S6C)
Protocol: (§1) All peptides were thawed at room temperature approximately 1 h before each functional experiment, as this time was needed to prepare the compound plates for each measurement.
(§2) HEK293T cells (ATCC) were cultured in Dulbecco’s Modified Eagle’s medium (DMEM, Biowest) supplemented with 10% (v/v) heat-inactivated fetal calf serum (FCS, Pan Biotech), 1 unit/ml penicillin-streptomycin (Biowest), and 2 mM L-glutamine (Biowest) until 80% confluence. For transfection, approximately 2000 cells were seeded in each well of poly-D-lysine–coated (PDL) (10 μg/ml in PBS, Sigma) black optical 96-well μCLEAR-plates (Greiner Bio-One). Cells were transfected after 24 h using jetPEI (Polyplus-transfection SA) with 0.125 μg of DNA plasmids encoding the respective receptors and equal amounts of a plasmid encoding the G protein subunit Gα16 since this subunit is needed to trigger FPR-dependent calcium signals in HEK293 cells ([50], [70]). The medium of transfected cells was changed 24 h after transfection. For mock transfections, the proportion of the FPR-containing plasmids were substituted by an empty pcDNA3.1 vector.
(§3) Cell population responses of transfected HEK293T cells and U87 cells were recorded using a Flexstation III microplate reader (Molecular Devices). Briefly, cells were incubated with 2 μM Calbryte 520 AM (AAC Bioquest) for 2 h at room temperature in C1 assay buffer with 5 mM glucose (Carl Roth). Before each experiment, cells were rinsed three times with C1. Experiments with HEK293T cells were conducted 48 h after transfection, while experiments with U87 cells were performed 24 h after seeding. Acquisition of baseline fluorescence was performed for 25 s before ligand application, and cell population response was measured for 125 s after application.

FPR1 = settings: cited from earlier work
Description: In summary, our study provides a systematic overview over the capability of different mouse and human FPRs to interact with Aβ in different buffer systems. To our knowledge, we are the first to report an activation of hFPR3 by Aβ and the first to identify N-abridged Aβ fragments as activators of FPRs.

U87 cells [1] = assay: Ca2+ imaging, U87 cells; settings: for Ca2+ response of U87 cells to receptor subtype-specific activator: 10 nM, n = 3, N = 3
Protocol: Peptides in HBSS or Tris–NaCl were dissolved in an ultrasonic bath as described above. […] The Aβ17-40 peptide used throughout the main text was purchased from Anaspec/MoBiTec and validated with Aβ17-40 peptides from Sigma-Aldrich and Synpeptide. Aβ11-40 was obtained from Peptides&Elephants. […] Tert-Boc-FLFL (tBoc2) was purchased from Bachem and dissolved in DMSO at 30 mM. f-MLFYFS (Psy-SP6) and f-MAMKKL (Sal-SP4) were obtained from VCPBIO and dissolved at 10 mM in DMSO (Psy-SP6) or at 1 mM in C1 (SP4), respectively. WKWMVm-NH2 and WKWMVm-CHO were purchased from Proteogenix and VCPBIO, respectively, and dissolved as 1 mM stock solutions in C1. fMLF was purchased from Sigma-Aldrich and also dissolved at 1 mM in C1. All peptides were thawed at room temperature approximately 1 h before each functional experiment, as this time was needed to prepare the compound plates for each measurement.
U87 MG cells (CLS) were cultured in Minimum Essential medium (Biowest) supplemented with 10% (v/v) heat-inactivated FCS (Pan Biotech), 1 unit/ml penicillin-streptomycin (Biowest), 2 mM L-glutamine (Biowest), and 1 unit/ml non-essential amino acids (Biowest) until 50 to 60% confluence. For calcium imaging and immunostaining, on average 2500 cells were seeded in each well of PDL-coated (10 μg/ml in PBS, Sigma) black optical 96-well μCLEAR-plates (Greiner Bio-One).
as §3

hFPR1 = assay: Ca2+ imaging, HEK293T transiently transfected with hFPR1; assay type: cell-based, human; settings: 10 μM tBoc2 co-applied with 5 μM Aβ17-40 (Fig. S6B)
hFPR2 = assay: Ca2+ imaging, HEK293T transiently transfected with hFPR2; assay type: cell-based, human; settings: 10 μM tBoc2 co-applied with 5 μM Aβ17-40 (Fig. S6B)
Protocol: as §1, §2, §3

APP/PS1 mice = settings: cited from earlier work
Description: The activation of PRRs by Aβ has become a recent focus in AD research because they have a special ability to potently trigger the reactive state ([14], [25]). Among these PRRs, FPRs are one of the promising targets for AD research ([12]). They belong to a small gene family of G protein–coupled receptors with three members in humans and seven in mice ([26]). FPRs are primarily expressed in the innate and adaptive immune system, where they contribute to the detection and elimination of bacterial pathogens ([27], [28], [29], [30]). However, they are also expressed in a number of cell types in the ... || In summary, our study provides a systematic overview over the capability of different mouse and human FPRs to interact with Aβ in different buffer systems. To our knowledge, we are the first to report an activation of hFPR3 by Aβ and the first to identify N-abridged Aβ fragments as activators of FPRs.

human and mouse FPRs = settings: control ligand, 10 μM; cited from earlier work
Protocol: Cell population responses of transfected HEK293T cells and U87 cells were recorded using a Flexstation III microplate reader (Molecular Devices). Briefly, cells were incubated with 2 μM Calbryte 520 AM (AAC Bioquest) for 2 h at room temperature in C1 assay buffer with 5 mM glucose (Carl Roth). Before each experiment, cells were rinsed three times with C1. Experiments with HEK293T cells were conducted 48 h after transfection, while experiments with U87 cells were performed 24 h after seeding.

U87 cells [2] = assay: Chemotaxis assay, U87 cells; assay type: cell-based, human; settings: 10 nM; n = 3, N = 1
Protocol: Cell migration assays were performed and analyzed with an IncuCyte S3 Life Cell Imaging System (EssenBio Science). […] Approximately, 1000 cells were placed into the top chamber of each well of a 96-well ClearView Plate (EssenBioscience). Chemoattractants were mixed in 200 μl medium and then placed in the corresponding bottom chambers. Image acquisition was performed hourly for 24 h on both sides of a membrane separating the top and bottom chambers. Subsequent analysis was performed using the IncuCyte S3 software.

U87 cells [3] = assay: Ca2+ imaging cross-desensitization, U87 cells; assay type: cell-based, human; settings: n = 1, N = 3
Description: Left: Representative image of gel electrophoresis after reverse transcription polymerase chain reaction with primers for all hFPRs. Right: Quantification of complementary DNA for all FPRs obtained through reverse transcription quantitative polymerase chain reaction, n = 5, N = 2. One-way ANOVA test, Dunnett post hoc test. B, left: representative immunocytochemistry staining of U87 cells and transfected HEK293T cells with FPR subtype–specific antibodies (red) and nuclei staining (blue). For visibility, brightness and contrast were adjusted for U87 cells and HEK293T cells differently; for absolute intensity comparison pictures with equal settings for exposure time, brightness and contrast pictures are shown in Figure S5. Scale bars indicate 100 μm. Right: Quantification of the mean FPR staining in U87 cells (green) in comparison to FPR-transfected HEK293T cells (red). Analysis was performed on images acquired with the same settings. n = 2, N = 5 for U87 cells and n = 2, N = 2 for HEK293T cells. One-way ANOVA test, Tukey post hoc test. […] One-way ANOVA test, Dunnett post hoc test. […] Representative […] traces (left) and mean Ca^2+ peak responses (right) to a secondary Aβ17-40 stimulus after pre-application of SP4 or SP6 as a first stimulus, n = 1, N = 3; t test. […] One-way ANOVA test, Tukey post hoc test. All Error bars, S.D. ∗p ≤ 0.05, ∗∗p ≤ 0.01, ∗∗∗p ≤ 0.001; ns, no significance. […]

In the case of C[S+](C)[O-] [DMSO, dimethyl sulfoxide], the “agonism at FPR1 and FPR2” value (FPR1 and FPR2) is listed as “agonist for FPR1 and FPR2”.

For “Tert-Boc-FLFL [tBoc2, reference compound]”, the “antagonism at FPR3” value (hFPR3; 10 μM tBoc2 co-applied with 5 μM Aβ17-40, n = 1, N = 2) is given as “does not inhibit FPR3”, the binding preference (FPR1) is given as “preferentially binds to FPR1” and the “inhibition of U87 Ca2+ response to Aβ11-40 / Aβ17-40” value (U87 cells [1]; 10 μM tBoc2 vs 5 μM Aβ11-40 or Aβ17-40, n = 3, N = 1) is given as “completely abolished the responses”. For the same compound, the “antagonism at FPR1” value (hFPR1) was “competitive antagonist of FPR1 and FPR2”, the “antagonism at FPR2” value (hFPR2) was “competitive antagonist of FPR1 and FPR2” and the “effect on microglia reactivity, neuronal pathology and cognition” value (APP/PS1 mice) was “reduced microglia reactivity, decreased neuronal pathology, and improved cognitive performance”.

In the case of WKWMVm-CHO, the “activation of human and mouse FPRs” value (human and mouse FPRs) is listed as “potent activators of all three human and mouse FPRs”.

In the case of WKWMVm-NH2, the “activation of human and mouse FPRs” value (human and mouse FPRs) is listed as “potent activators of all three human and mouse FPRs”.

With “f-MAMKKL [SP4, bacterial signal peptide, hFPR2-specific agonist, reference compound]” the “activation of hFPR3” value (hFPR3) was “would not activate hFPR3”, the “Ca2+ response of U87 cells to receptor subtype-specific activator” value (U87 cells [1]) was “not to the hFPR2-specific SP4 stimulus” and the “migration of U87 cells towards receptor subtype-specific activator” value (U87 cells [2]) was “do not respond to the hFPR2 agonist SP4; also recorded: not towards the FPR2-specific SP4”. The “effect of pre-application on U87 Ca2+ response to secondary Aβ17-40 stimulus” value (U87 cells [3]) was “not influenced by pre-application of the FPR2-specific agonist SP4”.

With f-MLFYFS [SP6, reference compound] the “activation of hFPR3” value (hFPR3) was “would not activate hFPR3”, the “Ca2+ response of U87 cells to receptor subtype-specific activator” value (U87 cells [1]) was “U87 cells respond to the potent hFPR1 activator SP6; also recorded: only responded to the hFPR1-specific SP6 stimulus with a calcium signal” and the “migration of U87 cells towards receptor subtype-specific activator” value (U87 cells [2]) was “migrate towards the hFPR1-stimulus SP6; also recorded: only migrated towards the FPR1-specific SP6”. The “effect of pre-application on U87 Ca2+ response to secondary Aβ17-40 stimulus” value (U87 cells [3]) was “abolished by the FPR1 activator SP6; also recorded: absent after pre-application of the FPR1-specific agonist SP6”.
